Patent US8614313B2, “Pharmaceutical compositions comprising forms of 5-azacytidine” (Pharmion LLC, priority 2003, dated 2013)
Blank lines part the entries; values can stand above or below the compound they belong to.

Assays:
Assay type in all cases: physicochemical
[1] = Polymorphic form conversion: Form I slurried in various solvents, recovered solid analyzed using XRPD
Excerpt: (§1) X-ray powder diffraction patterns for each sample were obtained on a Scintag XDS 2000 or a Scintag X2 θ/θ diffractometer operating with copper radiation at 45 kV and 40 mA using a Kevex Psi Peltier-cooled silicon detector or a Thermo ARL Peltier-cooled solid state detector. Source slits of 2 or 4 mm and detector slits of 0.5 or 0.3 mm were used for data collection. Recrystallized material was gently milled using an agate mortar and pestle for approximately one minute. Samples were placed in a stainless steel or silicon sample holder and leveled using a glass microscope slide. Powder diffraction patterns of the samples were obtained from 2 to 42° 2θ at 1°/minute. Calibration of the X2 diffractometer is verified annually using a silicon powder standard.
Form I of 5-azacytidine was added to various solvents in sufficient quantities to form a slurry, and the slurry allowed to equilibrate for a period of time. The solid material that was present in the slurry was recovered, dried, and analyzed using XRPD (according to the XRPD protocol included in Example 5) with the aim of detecting new polymorphs and pseudopolymorphs during the transition to the dissolved state.

[2] = Polymorphic form conversion of other forms slurried in water, solid analyzed using XRPD; conditions: approximate 25 mg/mL, equilibrated 15 minutes
Excerpt: as §1

[3] = Dehydration of Form III by heating; TGA water content and XRPD
Excerpt: as §1
Thermogravimetric Analysis (TGA) measurements for each sample were collected using a Perkin Elmer TGA 7 purged with nitrogen at approximately 20 cc/minute. A 100-mg standard weight and nickel metal were used to verify balance and temperature calibrations, respectively. Samples were heated from 25° C. to 250° C. or 300° C. at 10° C./minute.
5-azacytidine Form III was heated at 105° C. for 4 hours in an attempt to dehydrate the material. […] TGA was used to measure the water content of Form III before and after drying.

XRPD Pattern Assignment ([1]; slurry equilibrated 19 hours in 5% Dextrose): Form III
XRPD Pattern Assignment ([1]; slurry equilibrated 19 hours in 5% Tween 80): Form III
XRPD Pattern Assignment ([1]; slurry equilibrated 19 hours in 50/50 EtOH/DI Water): Form III
XRPD Pattern Assignment ([1]; slurry equilibrated 19 hours in Acetone): Form I
XRPD Pattern Assignment ([1]; slurry equilibrated 19 hours in DI Water): Form III
XRPD Pattern Assignment ([1]; slurry equilibrated 19 hours in DMSO): Amorphous
XRPD Pattern Assignment ([1]; slurry equilibrated 19 hours in Ethyl alcohol): Form I
XRPD Pattern Assignment ([1]; slurry equilibrated 19 hours in Methyl ethyl ketone): Form I
XRPD Pattern Assignment ([1]; slurry equilibrated 19 hours in Normal Saline): Form III
XRPD Pattern Assignment ([1]; slurry equilibrated 19 hours in Polyethylene glycol): Amorphous
XRPD Pattern Assignment ([1]; slurry equilibrated 19 hours in Propylene glycol): Amorphous
XRPD Pattern Assignment ([1]; slurry equilibrated 19 hours in Water-saturated Octanol): Form III
Structure (SMILES): Nc1ncn([C@@H]2O[C@H](CO)[C@@H](O)[C@H]2O)c(=O)n1 [Form I, 5-azacytidine]

form observed by XRPD after slurry in water [2]: Form III
Structure (SMILES): Nc1ncn([C@@H]2O[C@H](CO)[C@@H](O)[C@H]2O)c(=O)n1 [Form I/II mixed phase, 5-azacytidine]

amount of moisture (TGA) ([3]; after drying at 105° C. for 4 hours): < 0.1%
XRPD powder pattern after dehydration ([3]; heated at 105° C. for 4 hours): matches that of Form I
amount of moisture (TGA) ([3]; initial, before drying): 6.31%
Structure (SMILES): Nc1ncn([C@@H]2O[C@H](CO)[C@@H](O)[C@H]2O)c(=O)n1 [Form III, 5-azacytidine]
